This is an account of results in patent publication US20240268395A1, “ANTIFUNGAL PROTEIN COMPOSITION” (GEAENZYMES CO., priority 2019, published 2024).

Ends that are not written are not given here.

One data set concerns Aspergillus niger. The data set is described as follows: Agar dilution assay, inhibition of mycelial growth from spores. The format is cell-based. As to conditions: fused to carrier solubility protein. The text has this:
FIG. 8. Agar dilution assay to assess the antifungal activity of the peptide-protein fusion SEQ ID NO: 1-MBP against Aspergillus niger. Left, representative images of agar dilution assays performed with serial dilutions of antifungal peptide-MBP fusions added to agar before solidification. Assays tested for the inhibition of mycelial growth from A. niger spores. Protein storage buffer was used as a negative control for growth inhibition, and Zeocin was used as positive control. Right, IC50 values for the peptide-protein fusion SEQ ID NO: 1-MBP. Aggregated results from up to three independent experiments were used to interpolate IC50 from the fitted curve.
FIGS. 9A-9B. Agar dilution assay comparing the antifungal activity of the peptide-protein fusions SEQ ID NO: 28-MBP and SEQ ID NO: 29-MBP against Aspergillus niger. FIG. 9A: Representative images of agar dilution assays performed with serial dilutions of antifungal peptide-MBP fusions added to agar before solidification. Assays tested for the inhibition of mycelial growth from A. niger spores. […]
To further test the versatility of antifungal peptides, these were genetically fused to a variety of different carrier solubility proteins, and their antifungal activity tested. […] Mycelium length was then estimated and analyzed (FIGS. 3, 4, and 5). […]

In data set [1] the test system is Trichoderma reesei, Fusarium oxysporum, Rhizopus oligosporum, Aspergillus niger and two environmental isolates. Description: Fungal inhibition in agar plates containing embedded antifungal peptides. Type of data set: cell-based. As to conditions: 150 μg/ml, without carrier protein. How it is done: FIG. 1. Fungal inhibition in agar plates containing a composition comprising Antifungal Peptide SEQ ID NO: 1 after 2 days at 30° C. Fungal strains inoculated in the plate: 1: Trichoderma reesei; 2: Fusarium oxysporum; 3: Rhizopus oligosporum; 4: household environmental isolated; 5: Aspergillus niger; 6: bread contamination environmental isolate. Panel A: 150 μg/ml of peptidic antifungal composition with six histidine amino-terminal residues. Panel B: 150 μg/ml of peptidic antifungal composition with six histidine amino-terminal residues pre-treated for 10 minutes at 90° C. Panel C: 175 μg/ml of peptidic antifungal composition fused to a carrier protein. Panel D: negative control without peptidic antifungal composition.
Antifungal peptide having an amino acid sequence as set forth in SEQ ID NO: 1 (Table 1) was genetically fused to 6 amino-terminal histidine residues, expressed and produced in a recombinant manner in Escherichia coli, and after cell lysis, peptide purified using immobilized metal affinity chromatography (IMAC) with nickel resin. A second variant of antifungal peptide having an amino acid sequence as set forth in SEQ ID NO: 1 was also generated, fusing the antifungal peptide to a carrier protein. […] Fungal inhibition was then assessed in agar plates containing embedded antifungal peptides, incubating 2 days at 30° C. […]

Turning to “KRCGSQAGCPNGHCCSQYGFCGFGPEYCGRG [SEQ ID NO: 29]”, the “potency at sub-MIC concentrations (reflected in the IC50), comparison of the three peptides” value in the data set on Aspergillus niger was “highest potency”. For the sequence “VGECVRGRCPSGMCCSQFGYCGKGPKYCGR (not fully specified (N-terminus); cysteine pairing not given here) [SEQ ID NO: 1, tested genetically fused to 6 amino-terminal histidine residues, produced recombinantly in Escherichia coli]”, the “fungal growth in agar plates compared with control” value in data set [1] (six histidine amino-terminal residues, 2 days at 30° C.) is on record as “impacts the growth of all fungi when compared with the control condition, although to a lesser extent with the environmental fungal isolates”. Further, in data set [1] (pre-treated for 10 minutes at 90° C.), the “activity after pre-incubation at 90° C. (thermostability)” value was “does not impair its activity”.
